The source of these data is PubChem BioAssay (NCI).

Some test systems named below: SF-268 CNS; HCC-2998 colon; MDA-MB-435; MOLT-4 leukemia; HCT-116 colon; COLO 205 colon; SN12C renal; ACHN renal; SK-MEL-5 melanoma; SNB-19 CNS; MDA-N; OVCAR-5 ovarian; HOP-92 NSCLC.
Common to all, as to experiment: NCI anticancer screen, dose series, 48 h

The structures appear in SMILES notation. Several values for one entry are separate records, joined by “and”; a condition that tells them apart may be missing. Equal entries are not always repeated.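 48-hour exposure; five concentrations; linearly interpolated endpoints. The concentration for 50% growth inhibition is given as GI50. TGI denotes the concentration required for complete inhibition of growth.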

Consider `CCOC(=O)C1(F)S(=O)(=O)OCCOS1(=O)=O`, for which the TGI with SF-268 CNS, with HCC-2998 colon, with MDA-MB-435, in the assay with MOLT-4 leukemia, in the assay on HCT-116 colon and in the assay with COLO 205 colon was over 100 µM in each case. Also, the TGI in the assay on SN12C renal, in the assay with ACHN renal, with SK-MEL-5 melanoma, in the assay on SNB-19 CNS, in the assay on MDA-N and with OVCAR-5 ovarian was over 100 µM in each case.
`Cc1nc2ccc(C(F)(F)F)cc2nc1NCc1ccc(Cl)c(Cl)c1`: the TGI with SF-268 CNS is 34 µM; in the assay with HCC-2998 colon, 22.3 µM; with MDA-MB-435 it was 31.8 µM; in the assay on MOLT-4 leukemia it was 35.8 µM; in the assay with HCT-116 colon it was 32 µM; with COLO 205 colon, 30.6 µM. Besides, the TGI in the assay with SN12C renal amounted to 35.3 µM; in the assay on ACHN renal, 28 µM; in the assay with SK-MEL-5 melanoma, 33.8 µM; with SNB-19 CNS, 36.6 µM; with MDA-N it was 32 µM; in the assay on OVCAR-5 ovarian it was 25.9 µM.
For `CCC1OC2C(CC=C(C)C)=C3OC(C)(O)C(C)(CC)C(OC(C)=O)C3=C3OC(=O)C=C1C32` (stereo unspecified), the TGI was over 100 µM with SF-268 CNS; 50.6 µM in the assay with HCC-2998 colon; 50.3 µM with MDA-MB-435; 77.5 µM in the assay on MOLT-4 leukemia; 70 µM with HCT-116 colon; 70.9 µM with COLO 205 colon. In addition, the TGI is 41.2 µM in the assay on SN12C renal; over 100 µM in the assay with HOP-92 NSCLC; over 100 µM with ACHN renal; 42.2 µM in the assay with SK-MEL-5 melanoma; 63.2 µM in the assay with SNB-19 CNS; 57.9 µM in the assay on OVCAR-5 ovarian.
In the case of `COC(=O)[C@@]1(C(C)CC(=O)O)CCCCC1=O` (stereo partly specified), the TGI in the assay on SF-268 CNS, with HCC-2998 colon, in the assay on MOLT-4 leukemia, in the assay with HCT-116 colon, in the assay on COLO 205 colon and in the assay with SN12C renal was over 100 µM in each case. Moreover, the TGI in the assay with HOP-92 NSCLC, in the assay on ACHN renal, in the assay with SK-MEL-5 melanoma, in the assay with SNB-19 CNS and in the assay with OVCAR-5 ovarian was over 100 µM in each case.
In the case of `O=[N+]([O-])c1ccc(OC2CC3C4C=CC3C2C4)c([N+](=O)[O-])c1` (stereo unspecified), the GI50 in the assay with SF-268 CNS was over 100 µM; in the assay with HCC-2998 colon, over 100 µM; in the assay with MOLT-4 leukemia it was > 100 µM and 14.1 µM; in the assay on HCT-116 colon, 66.2 µM and > 31.6 µM; in the assay with SN12C renal, 86.4 µM and > 31.6 µM; in the assay with OVCAR-5 ovarian, over 100 µM. The TGI in the assay with SF-268 CNS was over 100 µM; in the assay with HCC-2998 colon, over 100 µM; in the assay with MDA-MB-435, over 100 µM; in the assay on MOLT-4 leukemia, > 100 µM and 25.7 µM; with HCT-116 colon, over 100 µM; with COLO 205 colon, over 100 µM. The TGI in the assay with SN12C renal was over 100 µM; in the assay with HOP-92 NSCLC, > 100 µM and 29.9 µM; in the assay with ACHN renal, over 100 µM; in the assay on SK-MEL-5 melanoma, over 100 µM; with SNB-19 CNS it was over 100 µM; in the assay on OVCAR-5 ovarian, over 100 µM.
Turning to `O=C(CCC1C(=O)NC(=S)NC1=O)c1ccc2ccccc2c1`, the TGI with SF-268 CNS, in the assay on HCC-2998 colon, in the assay with MOLT-4 leukemia, in the assay on HCT-116 colon, with COLO 205 colon and in the assay with SN12C renal was over 100 µM each time. Moreover, the TGI in the assay with HOP-92 NSCLC, with ACHN renal, in the assay with SK-MEL-5 melanoma, with SNB-19 CNS and with OVCAR-5 ovarian was over 100 µM each time.
For `CCN(CC)c1ccc2c(c1)Oc1ccc(N(CC)CC)cc1C21Oc2ccccc2-c2c1c1ccccc1n2CC` (stereo unspecified), the TGI in the assay with SF-268 CNS, in the assay on HCC-2998 colon, in the assay on MOLT-4 leukemia, with HCT-116 colon, in the assay on COLO 205 colon and in the assay on SN12C renal was over 100 µM in each case. Further, the TGI in the assay on HOP-92 NSCLC was 2.12 µM; in the assay with ACHN renal it was over 100 µM; in the assay on SK-MEL-5 melanoma, 25.3 µM; in the assay with SNB-19 CNS, over 100 µM.
As for `CCOC(=O)NNC(=O)NCc1cccc(CNC(=O)NNC(=O)OCC)c1`, the TGI with SF-268 CNS, with HCC-2998 colon, with MDA-MB-435, in the assay on MOLT-4 leukemia, in the assay with HCT-116 colon and with COLO 205 colon was over 100 µM in each case. Moreover, the TGI in the assay with SN12C renal, in the assay with SK-MEL-5 melanoma, with SNB-19 CNS, in the assay with MDA-N and in the assay on OVCAR-5 ovarian was over 100 µM in each case.
`Nc1ccc2c(c1)nc1n2C(c2c(F)cccc2F)SC1` (stereo unspecified): the TGI in the assay with SF-268 CNS, in the assay with HCC-2998 colon, in the assay with MDA-MB-435, in the assay on MOLT-4 leukemia, in the assay on HCT-116 colon and in the assay with COLO 205 colon was over 100 µM throughout. For the same compound, the TGI in the assay with SN12C renal, with ACHN renal, with SK-MEL-5 melanoma, with SNB-19 CNS, with MDA-N and with OVCAR-5 ovarian was over 100 µM each time.
Take `NS(=O)(=O)c1nnc(NS(=O)(=O)C(F)(F)F)s1`: the TGI in the assay with SF-268 CNS, in the assay on HCC-2998 colon, with MDA-MB-435, in the assay with MOLT-4 leukemia, with HCT-116 colon and in the assay with COLO 205 colon was over 100 µM throughout. In addition, the TGI in the assay with HOP-92 NSCLC, with ACHN renal, in the assay with SNB-19 CNS and with OVCAR-5 ovarian was over 100 µM throughout.
As to `COC(=O)c1ccc(S)c(S(=O)(=O)Nc2n[nH]c(N)n2)c1`, the TGI with MDA-MB-435, with MOLT-4 leukemia, in the assay on HCT-116 colon, with COLO 205 colon, in the assay with SN12C renal and in the assay with HOP-92 NSCLC was over 100 µM throughout. Besides, the TGI in the assay with ACHN renal, with SK-MEL-5 melanoma, with SNB-19 CNS, with MDA-N and in the assay on OVCAR-5 ovarian was over 100 µM in each case.
`CCOP1(=O)C=C(C)C(Cl)=C(C)C1` (stereo unspecified): the TGI was over 100 µM in the assay with SF-268 CNS; over 100 µM in the assay with HCC-2998 colon; 76.1 µM in the assay with MOLT-4 leukemia; 41.4 µM with HCT-116 colon; 24.4 µM in the assay on COLO 205 colon; 51.5 µM in the assay with SN12C renal. Further, the TGI with HOP-92 NSCLC was 68.3 µM; in the assay with ACHN renal it was 72.2 µM; with SK-MEL-5 melanoma, over 100 µM; in the assay with SNB-19 CNS, over 100 µM; with OVCAR-5 ovarian, over 100 µM.
